Where a name gives a salt, the structure may show the parent alone.
Experiments:
PAR1 [1] = target: T1, PAR1 (Rattus norvegicus, UniProt P26824); assay: TFLLR-induced contraction of rat-isolated bladder strips, naive animals
T1 construct: the bladder cut in longitudinal direction into two equal strips; from tissue; host or cells: isolated bladder strips of female Wistar Han rats (naive or 24 h after cyclophosphamide)
T1 sequence (P26824 22-432): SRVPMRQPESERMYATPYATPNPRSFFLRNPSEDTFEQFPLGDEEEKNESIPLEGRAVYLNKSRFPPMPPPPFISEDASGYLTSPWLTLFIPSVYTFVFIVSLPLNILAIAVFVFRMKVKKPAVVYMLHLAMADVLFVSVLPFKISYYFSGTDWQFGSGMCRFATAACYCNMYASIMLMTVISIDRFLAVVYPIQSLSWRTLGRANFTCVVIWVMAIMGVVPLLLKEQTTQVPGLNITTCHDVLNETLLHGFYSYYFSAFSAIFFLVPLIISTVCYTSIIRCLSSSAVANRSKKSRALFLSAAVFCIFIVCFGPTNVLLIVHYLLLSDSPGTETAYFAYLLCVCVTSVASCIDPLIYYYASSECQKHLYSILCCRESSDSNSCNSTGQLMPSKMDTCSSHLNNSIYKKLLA
From the text: (§1) Purpose of the experiment: Evaluate the role of 3-(2-Chloro-phenyl)-1-[4-(4-fluoro-benzyl)-piperazin-1-yl]-propenone on the amplitude of bladder contraction induced by trypsin and TFLLR. The experiment was led in parallel on naïve bladders and on bladders subjected to inflammation procedure. The effect of the compound of the invention was compared with that of a reference PAR1 antagonist: compound SCH203099, (Ahn et al. Biochem. Pharmacol. 60(10:1425-1434, 2000).
(§2) In naïve rats (no administration of cyclophosphamide) or 24 hours after administration of cyclophosphamide, the animals were anaesthetised with pentobarbital (60 mg/kg) and euthanized. The bladder was rapidly taken and placed in modified Krebs-Henseleit oxygenated solution having the following composition (mM): NaCl 114; KCl 4.7; CaCl2 2.5; MgSO4 1.2; KH2PO4 1.2; NaHCO3 25 and glucose 11.7 (pH 7.4 with 95% O2 and 5% CO2). The bladder was cleaned of conjunctive tissue, weighed, the distal and proximal portions removed and the bladder cut in longitudinal direction into two equal strips. These strips were attached with silk thread and immersed in a 10 mL isolated organ bath (EMKA Technologies) containing the Krebs-Henseleit oxygenated solution with 95%:5% mixture of O2/CO2 held at 37° C. The bladder strips were connected via the silk thread to isometric sensors (IT50 model, EMKA Technologies) connected to amplifiers (EMKA Technologies). Contractile responses were recorded using IOX2® software (EMKA Technologies).
(§3) For an initial stabilisation period of at least 90 minutes, rinsing operations were carried out every 15 minutes and the tensioning of each bladder strip readjusted to 1.0 g. The strips were then exposed to 50 mM KCl to verify their viability. If the contraction amplitude of the strips was less than 1.0 g, the tissues were discarded and not included in the experiment. After a second stabilisation and washing period of at least 45 minutes, a concentration of the compound of the invention or of the reference product (SCH203099) or of the vehicle was incubated for 30 minutes. A concentration-accumulative response curve to the selective agonist PAR1, to TFLLR (0.1 μM to 0.1 mM) or to trypsin (10 U to 10,000 BAEE U/mL) was plotted.
(§4) These experiments were conducted on naive bladders. The protocol followed was the same as the protocol described in Example 1.

PAR [2] = assay: trypsin-induced contraction of rat-isolated bladder strips, naive animals; conditions: for amplitude of bladder contraction: trypsin 3000 BAEE U/mL; for reduction in bladder contraction: trypsin; for effect on trypsin-induced bladder contraction at the other concentrations: other concentrations tested
From the text: as §1, §2, §3, §4

PAR1 [3] = target: T1, PAR1; assay: TFLLR-induced contraction of rat-isolated bladder strips, inflammation conditions (cyclophosphamide); conditions: inflamed rat bladder, 100 μM TFLLR
From the text: as §1
(§5) To induce inflammation of the bladder, cyclophosphamide was bilaterally injected into the rats (Female Wistar Han rats weighing 250 to 275 g on the day of the experiment, obtained from Charles River laboratory, France) via intraperitoneal route at a dose of 150 mg/kg in a final volume of 5 mL/kg.
as §2, §3

PAR [4] = assay: trypsin-induced contraction of rat-isolated bladder strips, inflammation conditions (cyclophosphamide); conditions: for amplitude of bladder contraction / reduction in bladder contraction: inflamed rat bladder; for amplitude of bladder contraction: trypsin 3000 BAEE U/mL; for reduction in bladder contraction: trypsin
From the text: as §1, §5, §2, §3

[5] = solubility of the compound in the organ bath experiment; assay type: physicochemical; conditions: noted at 10 μM and 30 μM in organ bath

Structure (SMILES) | amplitude of bladder contraction (PAR1 [1]; 100 μM TFLLR, compound 10 nM) [g] | reduction in bladder contraction (PAR1 [1]; 100 μM TFLLR, compound 10 nM) | amplitude of bladder contraction (PAR1 [1]; 100 μM TFLLR, compound 1 μM) [g] | effect on trypsin-induced bladder contraction versus vehicle (PAR [2]; compound 30 μM) | amplitude of bladder contraction (PAR [2]; compound 3 μM) [g] | amplitude of bladder contraction (PAR [2]; compound 10 μM) [g] | amplitude of bladder contraction (PAR1 [1]; 100 μM TFLLR, compound 10 μM) [g] | amplitude of bladder contraction (PAR1 [3]; compound 10 μM) [g] | reduction in bladder contraction (PAR1 [3]; compound 10 μM) [%] | amplitude of bladder contraction (PAR1 [3]; compound 30 μM) [g] | reduction in bladder contraction / contractile response (PAR1 [3]; compound 30 μM) [%] | amplitude of bladder contraction (PAR [4]; compound 10 μM) [g] | amplitude of bladder contraction (PAR [4]; compound 30 μM) [g] | reduction in bladder contraction (PAR [4]; compound 10 μM) [%] | reduction in bladder contraction (PAR [4]; compound 30 μM) | effect on trypsin-induced bladder contraction at the other concentrations (PAR [2]) | effect on trypsin-induced bladder contraction versus vehicle (PAR [2]; compound 10 μM) | also measured
CCOc1cc2c(c(F)c1OCC)C(=N)N(CC(=O)c1cc(N3CCOCC3)c(OC)c(C(C)(C)C)c1)C2 [atopaxar, [(1-(3-tert-butyl-4-methoxy-5-morpholinophenyl)-2-(5,6-diethoxy-fluoro-1-imino-1,3-dihydro-2H-isoindol-2yl)ethanone hydrobromide] | 0.21 ± 0.03 | more than 50% | 0.08 ± 0.03 | completely abolishes | 0.74 ± 0.19 | 0.36 ± 0.15 | – | – | – | – | – | – | – | – | – | – | – | decrease of bladder contraction (PAR1 [1]; 100 μM TFLLR, compound 1 μM): more than 80%; effect on trypsin-induced bladder contraction versus vehicle (PAR [2]; compound 1 μM): slight reduction; amplitude of bladder contraction (PAR [2]; compound 1 μM): 1.02 ± 0.20 g; reduction in bladder contraction (PAR [2]; compound 3 μM): 38%; reduction in bladder contraction (PAR [2]; compound 10 μM): 70%
O=C(/C=C/c1ccccc1Cl)N1CCN(Cc2ccc(F)cc2)CC1 [compound of the invention, 3-(2-Chloro-phenyl)-1-[4-(4-fluoro-benzyl)-piperazin-1-yl]-propenone] | – | – | – | divided by two | – | – | 0.18 ± 0.04 | 0.45 ± 0.13 | 60 | 0.11 ± 0.04 | 90 | 1.76 ± 0.30 | 0.92 ± 0.17 | 35 | about 70% | nothing was observed | – | amplitude of bladder contraction (PAR1 [1]; 100 μM TFLLR, compound 3 μM): 0.33 ± 0.05 g; reduction in bladder contraction (PAR1 [1]; 100 μM TFLLR, compound 3 μM): 45%; reduction in bladder contraction (PAR1 [1]; 100 μM TFLLR, compound 10 μM): 70%; amplitude of bladder contraction (PAR1 [1]; 100 μM TFLLR, compound 30 μM): 0.00 ± 0.04 g; effect on TFLLR-induced bladder contraction (PAR1 [1]; compound 1 μM): inactive; effect on TFLLR-induced bladder contraction (PAR1 [1]; compound 30 μM): completely abolished; reduction in bladder contraction (PAR1 [3]; compound up to 3 μM (no conclusive effect)): 10%; effect on trypsin-induced bladder contraction (PAR [4]; inflamed rat bladder (cyclophosphamide), compound up to 3 μM): inactive; amplitude of bladder contraction (PAR [2]; compound 30 μM): 0.55 ± 0.24 g
CCOC(=O)N[C@@H]1CC[C@@H]2[C@@H](C1)C[C@H]1C(=O)O[C@H](C)[C@H]1[C@H]2/C=C/c1ccc(-c2cccc(F)c2)cn1 [vorapaxar, ethyl N-[(3R,3aS,4S,4aR,7R,8aR,9aR)-4-[(E)-2-[5-(3-fluorophenyl)-2-pyridyl]vinyl]-3-methyl-1-oxo-3a,4,4a,5,6,7,8,8a,9,9a-decahydro-3H-benzo[f]isobenzofuran-7-yl]carbamate] | 0.14 ± 0.02 | 75% | 0.04 ± 0.03 | – | 0.79 ± 0.14 | – | – | – | – | – | – | – | – | – | – | – | lesser efficacy | amplitude of bladder contraction (PAR1 [1]; 100 μM TFLLR, compound 3 nM): 0.31 ± 0.12 g; reduction in bladder contraction (PAR1 [1]; 100 μM TFLLR, compound 3 nM): ~50%; effect on TFLLR-induced bladder contraction (PAR1 [1]; compound from 1 μM): completely abolishes; solubility [5]: low solubility
CNc1nc(NC2CC2)nc2ccc3c(ccn3Cc3ccc(C(C)C)cc3)c12 [SCH203099] | – | – | – | – | – | 0.48 ± 0.11 | 0.26 ± 0.07 | 0.73 ± 0.10 | 35 | 0.49 ± 0.08 | 55 | 1.77 ± 0.38 | 1.04 ± 0.16 | 35 | 60% | nothing was observed | divided by two | effect on TFLLR-induced bladder contraction versus vehicle (PAR1 [1]; compound 10 μM): divided by two; effect on TFLLR-induced bladder contraction at the other concentrations (PAR1 [1]; other concentrations tested): nothing was observed; reduction in bladder contraction (PAR1 [3]; compound 3 μM (no conclusive effect)): 10%; amplitude of bladder contraction (PAR [4]; compound 3 μM): 2.05 ± 0.53 g; reduction in bladder contraction (PAR [4]; compound 3 μM): 25%

From US10265322B2, “Use of PAR-1 antagonists for preventing and/or treating pelvi-perineal functional pathological conditions” (PIERRE FABRE MEDICAMENT, priority 2013, dated 2019)
